# pIC50: −log10 of the molar value.
# What was measured:
# CDK2/CycE = target: T1, CDK2/CycE (Homo sapiens, UniProt P24941); assay: CDK2/CycE kinase assay (TR-FRET); assay type: biochemical; settings: Method 2, 10 μM ATP
# T1 construct: GST; purchased ProQinase GmbH (Freiburg, Germany); host or cells: insect cells (Sf9)
# In short: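 GST-CDK2/GST-CycE (Sf9-expressed, ~130 ng/ml) pre-incubated with compound 15 min, then reacted 25 min at 22 °C with 10 μM ATP and 0.75 μM biotinylated peptide in Tris pH 8.0. Phospho-substrate detected by TR-FRET (anti-pRb pSer807/811, Eu/XL665), 665/620 nm ratio.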
# [1] = test system: HeLa human cervical tumour cells; assay: Proliferation assay (crystal violet), HeLa; assay type: cell-based; settings: read-out: Inhibition of HeLa cell proliferation
# CDK9/CycT1 = target: T2, CDK9/CycT1 (Homo sapiens, UniProt P50750); assay: CDK9/CycT1 kinase assay (TR-FRET); assay type: biochemical; settings: Method 1, 10 μM ATP
# T2 construct: Recombinant full-length His-tagged human CDK9 and CycT1; His; purchased Invitrogen PV4131; host or cells: insect cells
# In short: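 Full-length His-tagged human CDK9/CycT1 (insect-cell expressed), 15 min compound pre-incubation, then 25 min at 22 °C with 10 µM ATP (final) and 1 µM biotinylated peptide (final) in Tris pH 8.0/MgCl2 buffer. Phospho-substrate detected by TR-FRET (anti-RB pSer807/pSer811, Eu anti-mouse IgG, streptavidin-XL665); 665/622 nm emission ratio as read-out.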
# Caco-2 permeation assay = assay type: in vitro ADME; settings: human
# Experimental: Cells were maintained at 37° C. in a humified 5% CO2 atmosphere. Medium was changed every 2-3 day. Before running the permeation assay, the culture medium was replaced by a FCS-free hepes-carbonate transport buffer (pH 7.2). For assessment of monolayer integrity the transepithelial electrical resistance (TEER) was measured. Test compounds were predissolved in DMSO and added either to the apical or basolateral compartment in final concentration of 2 μM in transport buffer. Before and after 2 h incubation at 37° C. samples were taken from both compartments. Analysis of compound content was done after precipitation with methanol by LC/MS/MS analysis. Apparent permeability (Papp) was calculated in the apical to basolateral (Papp A→B) and basolateral to apical (Papp B→A) directions. The apparent permeability was calculated using following equation: Papp=(Vr/Po)(1/S)(P2/t)
# Where Vr is the volume of medium in the receiver chamber, Po is the measured peak area or height of the test drug in the donor chamber at t=o, S the surface area of the monolayer, P2 is the measured peak area of the test drug in the acceptor chamber after 2 h of incubation, and t is the incubation time. The efflux ratio basolateral (B) to apical (A) was calculated by dividing the Papp B−A by the Papp A-B. In addition the compound recovery was calculated. The following reference compounds were used for the classification of the permeability class: Antipyrine, Pyrazosin, Verapamil, Fluvastatin, Cimetidine, Ranitidine, Atenolol, Sulfasalazine.
# [2] = test system: NCI-H460, human non-small cell lung carcinoma cells; assay: Proliferation assay (crystal violet), NCI-H460; assay type: cell-based; settings: read-out: Inhibition of H460 cell proliferation (activity range)
# Experimental: (§1) Cultivated tumour cells (NCI-H460, human non-small cell lung carcinoma cells, ATCC HTB-177; DU 145, hormone-independent human prostate carcinoma cells, ATCC HTB-81; HeLa-MaTu, human cervical carcinoma cells, EPO-GmbH, Berlin; HeLa-MaTu-ADR, multidrug-resistant human cervical carcinoma cells, EPO-GmbH, Berlin; HeLa human cervical tumour cells, ATCC CCL-2; Caco-2 human colorectal carcinoma, ATCC HTB-37; B16F10 mouse melanoma cells, ATCC CRL-6475) were plated at a density of 5000 cells/well (DU145, HeLa-MaTu-ADR), 3000 cells/well (NCI-H460, HeLa-MaTu, HeLa), 1500 cells/well (Caco-2), or 1000 cells/well (B16F10) in a 96-well multititer plate in 200 μL of their respective growth medium supplemented 10% fetal calf serum. After 24 hours, the cells of one plate (zero-point plate) were stained with crystal violet (see below), while the medium of the other plates was replaced by fresh culture medium (200 μl), to which the test substances were added in various concentrations (0 μM, as well as in the range of 0.001-10 μM; the final concentration of the solvent dimethyl sulfoxide was 0.5%). The cells were incubated for 4 days in the presence of test substances. Cell proliferation was determined by staining the cells with crystal violet: the cells were fixed by adding 20 μl/measuring point of an 11% glutaric aldehyde solution for 15 minutes at room temperature. After three washing cycles of the fixed cells with water, the plates were dried at room temperature. The cells were stained by adding 100 μl/measuring point of a 0.1% crystal violet solution (pH 3.0). After three washing cycles of the stained cells with water, the plates were dried at room temperature. The dye was dissolved by adding 100 μl/measuring point of a 10% acetic acid solution. The extinction was determined by photometry at a wavelength of 595 nm. The change of cell number, in percent, was calculated by normalization of the measured values to the extinction values of the zero-point plate (=0%) and the extinction of the untreated (0 μm) cells (=100%). The IC50 values were determined by means of a 4 parameter fit.
# [3] = test system: Caco-2 human colorectal carcinoma; assay: Proliferation assay (crystal violet), Caco-2; assay type: cell-based; settings: CACO-2 cells, read-out: Inhibition of CACO-2 cell proliferation
# [4] = test system: DU 145, hormone-independent human prostate carcinoma cells; assay: Proliferation assay (crystal violet), DU 145; assay type: cell-based; settings: DU145 cells, read-out: Inhibition of DU145 cell proliferation
# [5] = test system: HeLa-MaTu-ADR, multidrug-resistant human cervical carcinoma cells; assay: Proliferation assay (crystal violet), HeLa-MaTu-ADR; assay type: cell-based; settings: read-out: Inhibition of HeLa/MaTu/ADR cell proliferation
# Experimental: as §1
# [6] = test system: B16F10 mouse melanoma cells; assay: Proliferation assay (crystal violet), B16F10; assay type: cell-based; settings: B16-F10, read-out: Inhibition of B16F10 cell proliferation
# Experimental: as §1
# T2 sequence (P50750 whole entry): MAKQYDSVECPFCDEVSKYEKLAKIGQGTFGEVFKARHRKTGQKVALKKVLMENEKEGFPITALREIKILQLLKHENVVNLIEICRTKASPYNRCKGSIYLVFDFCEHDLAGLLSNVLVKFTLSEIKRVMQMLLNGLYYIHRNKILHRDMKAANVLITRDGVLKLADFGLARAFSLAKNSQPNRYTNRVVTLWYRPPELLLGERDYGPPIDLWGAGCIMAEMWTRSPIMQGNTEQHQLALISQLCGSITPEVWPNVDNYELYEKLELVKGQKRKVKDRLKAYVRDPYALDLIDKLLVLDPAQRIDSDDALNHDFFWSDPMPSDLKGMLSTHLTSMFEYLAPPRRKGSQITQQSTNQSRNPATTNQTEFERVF
# T2 sequence (O60563 whole entry partner): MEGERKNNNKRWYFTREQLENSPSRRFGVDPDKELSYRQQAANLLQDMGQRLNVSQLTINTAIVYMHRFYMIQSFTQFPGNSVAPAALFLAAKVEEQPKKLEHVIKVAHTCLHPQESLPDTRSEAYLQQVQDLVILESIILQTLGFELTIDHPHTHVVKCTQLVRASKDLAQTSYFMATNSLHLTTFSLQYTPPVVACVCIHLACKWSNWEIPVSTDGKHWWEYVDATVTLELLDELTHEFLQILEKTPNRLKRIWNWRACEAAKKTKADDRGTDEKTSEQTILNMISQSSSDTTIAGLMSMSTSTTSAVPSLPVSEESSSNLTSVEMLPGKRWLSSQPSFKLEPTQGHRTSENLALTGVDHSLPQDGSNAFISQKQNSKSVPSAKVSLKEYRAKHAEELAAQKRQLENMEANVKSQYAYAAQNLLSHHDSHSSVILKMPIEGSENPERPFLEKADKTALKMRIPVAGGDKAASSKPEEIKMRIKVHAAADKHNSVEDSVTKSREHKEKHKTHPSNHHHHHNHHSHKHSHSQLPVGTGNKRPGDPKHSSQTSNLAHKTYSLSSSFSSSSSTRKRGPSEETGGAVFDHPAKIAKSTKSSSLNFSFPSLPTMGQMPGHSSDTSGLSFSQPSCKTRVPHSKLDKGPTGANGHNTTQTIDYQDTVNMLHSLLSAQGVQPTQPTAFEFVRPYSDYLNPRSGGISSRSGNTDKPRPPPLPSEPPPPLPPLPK
structure (smiles),measurement,setting,value
"CS(=O)(=O)Cc1cccc(Nc2ncnc(-c3ccccc3OCc3cccc(F)c3)n2)c1 [Example 26, 4-{2-[(3-Fluorobenzyl)oxy]phenyl}-N-{3-[(methylsulfonyl)methyl]phenyl}-1,3,5-triazin-2-amine]",pIC50,CDK2/CycE,6.54
same,pIC50,[1],6.28
same,pIC50,CDK9/CycT1,8.52
same,"efflux ratio at 2 h, 2 μM","Caco-2 permeation assay; Caco-2, pH 7.2",0.43
same,"Papp A→B at 2 h, 2 μM","Caco-2 permeation assay; Caco-2 monolayer, 2 μM test compound, 2 h, pH 7.2, read-out: Papp A-B (Mari)",16.9 ×10⁻⁶ cm/s
same,"Papp B→A at 2 h, 2 μM","Caco-2 permeation assay; Caco-2 monolayer, 2 μM test compound, 2 h, pH 7.2, read-out: Papp B-A (Mari)",7.2 ×10⁻⁶ cm/s
"CS(=O)(=O)Cc1cccc(Nc2ncnc(-c3ccc(F)cc3OCc3ccc(F)c(F)c3F)n2)c1 [Example 72, 4-{4-Fluoro-2-[(2,3,4-trifluorobenzyl)oxy]-phenyl}-N-{3-[(methylsulfonyl)methyl]-phenyl}-1,3,5-triazin-2-amine]",pIC50,CDK2/CycE,≤ 4.70
same,pIC50,[1],5.94
same,pIC50,CDK9/CycT1,8.15
"CS(=O)(=O)Cc1cccc(Nc2ncnc(-c3ccc(F)cc3OCc3ccc(C(F)(F)F)cc3)n2)c1 [Example 73, 4-(4-Fluoro-2-{[4-(trifluoromethyl)benzyl]-oxy}phenyl)-N-{3-[(methylsulfonyl)-methyl]phenyl}-1,3,5-triazin-2-amine]",pIC50,CDK2/CycE,≤ 4.70
same,pIC50,[1],5.96
same,pIC50,CDK9/CycT1,7.92
"CS(=O)(=O)Cc1cccc(Nc2ncnc(-c3ccc(F)cc3OCc3cccnc3)n2)c1 [Example 74, 4-[4-Fluoro-2-(pyridin-3-ylmethoxy)phenyl]-N-{3-[(methylsulfonyl)methyl]phenyl}-1,3,5-triazin-2-amine]",pIC50,CDK2/CycE,6.24
same,pIC50,[1],5.96
same,pIC50,CDK9/CycT1,8.15
"CS(=O)(=O)Cc1cccc(Nc2ncnc(-c3ccc(F)cc3OCc3ccc(Cl)cc3)n2)c1 [Example 76, 4-{2-[(4-Chlorobenzyl)oxy]-4-fluorophenyl}-N-{3-[(methylsulfonyl)methyl]phenyl}-1,3,5-triazin-2-amine]",pIC50,CDK2/CycE,6.15
same,pIC50,[1],6.00
same,pIC50,CDK9/CycT1,8.22
"Cc1ccc(COc2cc(F)ccc2-c2ncnc(Nc3cccc(CS(C)(=O)=O)c3)n2)cc1 [Example 77, 4-{4-Fluoro-2-[(4-methylbenzyl)oxy]phenyl}-N-{3-[(methylsulfonyl)-methyl]phenyl}-1,3,5-triazin-2-amine]",pIC50,CDK2/CycE,5.80
same,pIC50,[1],6.00
same,pIC50,CDK9/CycT1,7.89
"C[C@@H](Oc1cc(F)ccc1-c1ncnc(Nc2cccc(CS(C)(=O)=O)c2)n1)c1ccccc1 [Example 79, 4-{4-Fluoro-2-[(1R)-1-phenylethoxy]phenyl}-N-{3-[(methylsulfonyl)methyl]phenyl}-1,3,5-triazin-2-amine]",pIC50,CDK2/CycE,6.36
same,pIC50,[1],6.04
same,pIC50,CDK9/CycT1,8.52
"CS(=O)(=O)Cc1cccc(Nc2ncnc(-c3ccc(F)cc3OCc3cccc(F)c3F)n2)c1 [Example 80, 4-{2-[(2,3-Difluorobenzyl)-oxy]-4-fluorophenyl}-N-{3-[(methylsulfonyl)-methyl]phenyl}-1,3,5-triazin-2-amine]",pIC50,CDK2/CycE,5.70
same,pIC50,[1],6.05
same,pIC50,CDK9/CycT1,7.68
"CS(=O)(=O)Cc1cccc(Nc2ncnc(-c3ccc(F)cc3OCc3cc(F)cc(F)c3F)n2)c1 [Example 84, 4-{4-Fluoro-2-[(2,3,5-trifluorobenzyl)oxy]phenyl}-N-{3-[(methylsulfonyl)methyl]-phenyl}-1,3,5-triazin-2-amine]",pIC50,[2],6.51
same,pIC50,[3],6.49
same,pIC50,[4],6.46
same,pIC50,[5],6.55
same,pIC50,[1],6.47
same,pIC50,CDK9/CycT1,8.52
same,pIC50,[6],6.31
"CS(=O)(=O)Cc1cccc(Nc2ncnc(-c3ccc(F)cc3OCc3ccc(F)c(F)c3)n2)c1 [Example 86, 4-{2-[(3,4-Difluoro-benzyl)oxy]-4-fluorophenyl}-N-{3-[(methylsulfonyl)-methyl]phenyl}-1,3,5-triazin-2-amine]",pIC50,[2],6.57
same,pIC50,[3],6.70
same,pIC50,[4],6.64
same,pIC50,[5],6.66
same,pIC50,[1],6.60
same,pIC50,CDK9/CycT1,8.22
same,pIC50,[6],6.60
